According to patent US5955607A, “Sulfonamide-substituted chromans, processes for their preparation, their use as a medicament or diagnostic, and pharmaceutical preparations comprising them” (priority 1997, dated 1999):
Structures can show the parent of a compound that is named as a salt.

How the values were obtained:
human IsK protein = target: T1, human IsK protein (UniProt P15382+P70057); assay: cell-based; settings: human IsK expressed in Xenopus oocytes, -10 mV voltage jumps lasting 15 s, room temperature, pH 7.5; Hill equation
T1 construct: channel formed with endogenous oocyte KCNQ1; two-microelectrode voltage clamp

IKr = settings: known class III antiarrhythmics; cited from earlier work
K^+ (ATP) channel = settings: cromakalim (formula A) and analogous acylamino compounds; cited from earlier work

T1 sequence (P70057 whole entry): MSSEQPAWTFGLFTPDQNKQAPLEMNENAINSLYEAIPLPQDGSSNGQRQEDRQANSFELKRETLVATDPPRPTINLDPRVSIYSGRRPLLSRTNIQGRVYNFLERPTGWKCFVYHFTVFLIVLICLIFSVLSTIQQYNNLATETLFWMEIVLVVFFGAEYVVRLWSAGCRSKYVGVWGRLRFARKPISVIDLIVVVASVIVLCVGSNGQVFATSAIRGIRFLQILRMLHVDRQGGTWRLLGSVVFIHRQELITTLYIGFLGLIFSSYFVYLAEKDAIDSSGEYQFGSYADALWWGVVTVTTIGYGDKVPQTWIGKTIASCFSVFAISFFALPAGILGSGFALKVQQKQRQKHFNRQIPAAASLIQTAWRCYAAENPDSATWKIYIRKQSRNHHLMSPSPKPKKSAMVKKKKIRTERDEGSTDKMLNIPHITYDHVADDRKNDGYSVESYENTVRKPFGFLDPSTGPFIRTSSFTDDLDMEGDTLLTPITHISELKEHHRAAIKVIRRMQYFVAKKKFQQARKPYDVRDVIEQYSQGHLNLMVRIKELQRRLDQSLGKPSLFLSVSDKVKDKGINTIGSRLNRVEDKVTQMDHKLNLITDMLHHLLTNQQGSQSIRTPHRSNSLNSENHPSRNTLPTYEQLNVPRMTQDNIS

Structure (SMILES)	IC50 (human IsK protein)	other results
CCCCOc1ccc2c(c1)C(N(CCCOCCO)S(C)(=O)=O)CC(C)(C)O2 (stereo not shown) [Example 45, N-(6-Butoxy-2,2-dimethylchroman-4-yl)-N-[3-(2-hydroxyethoxy)propyl]methanesulfonamide]	450 nM	–
Cc1ccc2c(c1)C(N(CCCCC(=O)OCCN(C)Cc1ccccc1)S(C)(=O)=O)CC(C)(C)O2 (stereo not shown) [Example 10, 2-(Benzylmethylamino)ethyl 5-[methanesulfonyl-(2,2,6-trimethylchroman-4-yl)amino]pentanoate]	790 nM	–
COCCOCCCCN(C1CC(C)(C)Oc2ccc(OCc3ccccc3)cc21)S(C)(=O)=O (stereo not shown) [Example 29, N-(6-Benzyloxy-2,2-dimethylchroman-4-yl)-N-[4-(2-methoxyethoxy)butyl]methanesulfonamide]	< 1000 nM	–
CCS(=O)(=O)N(CC(=O)NCCc1ccccc1)C1CC(C)(C)Oc2ccc(F)cc21 (stereo not shown) [Example 21, 2-[Ethanesulfonyl-(6-fluoro-2,2-dimethylchroman-4-yl)amino]-N-phenethylacetamide]	46 nM	–
CCCCOc1ccc2c(c1)C(N(CC(=O)NC(=N)N)S(C)(=O)=O)CC(C)(C)O2 (stereo not shown) [Example 56, N-(6-Butoxy-2,2-dimethylchroman-4-yl)-N-(2-guanidino-2-oxoethyl)methanesulfonamide]	3400 nM	–
CCOCCOCCOC(=O)CN(C1CC(CC)(CC)Oc2ccc(C)cc21)S(=O)(=O)CC (stereo not shown) [Example 4, 2-(2-Ethoxyethoxy)ethyl [(2,2-diethyl-6-methylchroman-4-yl)-ethylsulfonylamino]acetate]	1000 nM	–
CC(C)NC[C@@H](O)c1ccc(NS(C)(=O)=O)cc1 [d-sotalol]	–	block of IKr (IKr): mainly or exclusively block IKr
CCS(=O)(=O)N(CC(=O)Nc1nc2ccccc2[nH]1)C1CC(C)(C)Oc2ccc(F)cc21 (stereo not shown) [Example 61, N-(1H-Benzoimidazol-2-yl)-2-[ethanesulfonyl-(6-fluoro-2,2-dimethyl-chroman-4-yl)-amino]-acetamide]	< 1000 nM	–
CCCCOc1ccc2c(c1)C(N(CCOCCOC)S(C)(=O)=O)CC(C)(C)O2 (stereo not shown) [Example 42, N-(6-Butoxy-2,2-dimethylchroman-4-yl)-N-[2-(2-methoxyethoxy)ethyl]methanesulfonamide]	340 nM	–
CCS(=O)(=O)N(CC(=O)OCCN(C)Cc1ccccc1)C1CC(C)(C)Oc2ccc(F)cc21 (stereo not shown) [Example 49, 2-(Benzylmethylamino)ethyl [ethanesulfonyl-(6-fluoro-2,2-dimethylchroman-4-yl)amino]acetate]	83 nM	–
CC1(C)CC(N(CCCCOCC(=O)O)S(C)(=O)=O)c2cc(OCc3ccccc3)ccc2O1 (stereo not shown) [Example 34, {4-[(6-Benzyloxy-2,2-dimethylchroman-4-yl)methanesulfonylamino]butoxy}acetic acid]	~700 nM	–
CCS(=O)(=O)N(CC(=O)Nc1ccncc1)C1CC(C)(C)Oc2ccc(F)cc21 (stereo not shown) [Example 22, 2-[Ethanesulfonyl-(6-fluoro-2,2-dimethylchroman-4-yl)amino]-N-pyridin-4-ylacetamide]	670 nM	–
CC1(C)Oc2ccc(C#N)cc2[C@@H](N2CCCC2=O)[C@@H]1O (relative stereo) [cromakalim]	–	action on ATP-sensitive K^+ channels (K^+ (ATP) channel): act as openers of ATP-sensitive K^+ channels
CCCCOc1ccc2c(c1)C(N(CCOCC(=O)O)S(C)(=O)=O)CC(C)(C)O2 (stereo not shown) [Example 43, {2-[(6-Butoxy-2,2-dimethylchroman-4-yl)methanesulfonylamino]ethoxy}acetic acid]	7800 nM	–
CCOC(=O)CN(C)C(=O)CCCN(C1CC(C)(C)Oc2ccc(OCc3ccccc3)cc21)S(C)(=O)=O (stereo not shown) [Example 31, Ethyl ({4-[(6-benzyloxy-2,2-dimethylchroman-4-yl)methanesulfonylamino]butyryl}methylamino)acetate]	280 nM	–
CCS(=O)(=O)N(CC(=O)Nc1nc2ccccc2n1C)C1CC(C)(C)Oc2ccc(F)cc21 (stereo not shown) [Example 27, 2-[Ethanesulfonyl-(6-fluoro-2,2-dimethylchroman-4-yl)amino]-N-(1-methyl-1H-benzoimidazol-2-yl)acetamide]	2100 nM	–
CCCCOc1ccc2c(c1)C(N(CCCOC(=O)NCCN1CCOCC1)S(C)(=O)=O)CC(C)(C)O2 (stereo not shown) [Example 47, 3-[(6-Butoxy-2,2-dimethylchroman-4-yl)methanesulfonylamino]propyl (^2-morpholin-4-yl-ethyl)carbamate]	750 nM	–

Continued, in another order:

IC50 (human IsK protein)	Structure (SMILES)	other results
180 nM	CCS(=O)(=O)N(CC(=O)Nc1ccccn1)C1CC(C)(C)Oc2ccc(F)cc21 (stereo not shown) [Example 14, 2-[(6-Fluoro-2,2-dimethylchroman-4-yl)ethanesulfonylamino]-N-pyridin-2-ylacetamide]	–
830 nM	CCS(=O)(=O)N(CC(=O)Nc1nc[nH]n1)C1CC(C)(C)Oc2ccc(F)cc21 (stereo not shown) [Example 54, 2-[Ethanesulfonyl-(6-fluoro-2,2-dimethylchroman-4-yl)amino]-N-(1H-[1,2,4]triazol-3-yl)acetamide]	–
250 nM	CCOC(=O)CN(C)C(=O)CN(C1CC(C)(C)Oc2ccc(OCc3ccccc3)cc21)S(C)(=O)=O (stereo not shown) [Example 32, Ethyl ({2-[(6-benzyloxy-2,2-dimethylchroman-4-yl)methanesulfonylamino]acetyl}methylamino)acetate]	–
500 nM	CC1(C)Oc2ccc(Cl)cc2[C@@H](N(CC(=O)NCCc2ccccc2)S(C)(=O)=O)[C@@H]1O (relative stereo) [Example 58, 2-[(6-Chloro-3-hydroxy-2,2-dimethylchroman-4-yl)methanesulfonylamino]-N-phenethylacetamide]	–
< 1000 nM	CCS(=O)(=O)N(CC(=O)NCCN(C)Cc1ccccc1)C1CC(C)(C)Oc2ccc(F)cc21 (stereo not shown) [Example 62, N-[2-(Benzyl-methyl-amino)-ethyl]-2-[ethanesulfonyl-(6-fluoro-2,2-dimethyl-chroman-4-yl)-amino]-acetamide]	–
1000 nM	CCS(=O)(=O)N(CC(=O)Nc1ncccn1)C1CC(C)(C)Oc2ccc(F)cc21 (stereo not shown) [Example 24, 2-[Ethanesulfonyl-(6-fluoro-2,2-dimethylchroman-4-yl)amino]-N-pyrimidin-2-ylacetamide]	–
450 nM	CCS(=O)(=O)N(CC(=O)Nc1cnccn1)C1CC(C)(C)Oc2ccc(F)cc21 (stereo not shown) [Example 25, 2-[Ethanesulfonyl-(6-fluoro-2,2-dimethylchroman-4-yl)amino]-N-pyrazin-2-ylacetamide]	–
350 nM	CN(CCc1ccccn1)C(=O)CN(C1CC(C)(C)Oc2ccc(OCc3ccccc3)cc21)S(C)(=O)=O (stereo not shown) [Example 40, 2-[(6-Benzyloxy-2,2-dimethylchroman-4-yl)methanesulfonylamino]-N-methyl-N-(2-pyridin-2-yl-ethyl)acetamide hydrochloride]	–
310 nM	CN(CCc1ccccc1)C(=O)CN(C1CC(C)(C)Oc2ccc(OCc3ccccc3)cc21)S(C)(=O)=O (stereo not shown) [Example 39, 2-[(6-Benzyloxy-2,2-dimethylchroman-4-yl)methanesulfonylamino]-N-methyl-N-phenethylacetamide]	–
1420 nM	COCCOCCN(C1CC(C)(C)Oc2ccc(OCc3ccccc3)cc21)S(C)(=O)=O (stereo not shown) [Example 38, N-(6-Benzyloxy-2,2-dimethylchroman-4-yl)-N-[2-(2-methoxyethoxy)ethyl]methanesulfonamide]	–
550 nM	CCS(=O)(=O)N(CC(=O)Nc1cccnc1)C1CC(C)(C)Oc2ccc(F)cc21 (stereo not shown) [Example 23, 2-[Ethanesulfonyl-(6-fluoro-2,2-dimethylchroman-4-yl)-amino]N-pyridin-3-ylacetamide]	–
1600 nM	CCS(=O)(=O)N(CC(=O)NCCc1ccccn1)C1CC(C)(C)Oc2ccc(F)cc21 (stereo not shown) [Example 9, 2-[Ethylsulfonyl-(6-fluoro-2,2-dimethylchroman-4-yl)amino]-N-(2-pyridin-2-ylethyl)acetamide]	–
470 nM	CCCCNC(=O)CCCN(C1CC(C)(C)Oc2ccc(OCc3ccccc3)cc21)S(C)(=O)=O (stereo not shown) [Example 28, 4-[(6-Benzyloxy-2,2-dimethylchroman-4-yl)methanesulfonylamino]-N-butylbutyramide]	–
< 1000 nM	CC1(C)CC(N(CC(=O)NCCc2ccccn2)S(C)(=O)=O)c2cc(OCc3ccccc3)ccc2O1 (stereo not shown) [Example 17, 2-[(6-Benzyloxy-2,2-dimethylchroman-4-yl)methanesulfonylamino]-N-(2-pyridin-2-yl-ethyl)acetamide]	–
